Consider ten molecules from patent US5395610A, “Agents for potentiating the effects of antitumor agents and combating multiple drug resistance” (Burroughs-Wellcome Co., priority 1989, dated 1995).

Series [1] is described as follows: In vitro cytotoxicity / potentiation of Actinomycin D in Chinese hamster ovary cells, drug resistant C5S32 (MTT). The format is cell-based. Particulars: hamster, cho c5s32 cells, fraction of untreated cultures (1.00), read-out: Cytotoxicity, normalized absorbance, Drug Resistant C5S32, 0 (no Act D); for viability at 96 h, 1 µM: 1 μM potentiating agent alone; for viability at 96 h, 10 µM: 10 μM potentiating agent alone.

For series [2], the system named is Chinese hamster ovary (CHO) cells, drug resistant C5S32. The series is described as above. The class given is cell-based. The following applies: 96 h, fraction of Act D alone (1.00).
Series [3] concerns human KB epidermoid carcinoma cells, wildtype KB 3-1. In words: In vitro cytotoxicity / potentiation of Actinomycin D in human KB epidermoid carcinoma cells, wildtype KB 3-1 (MTT). The format is cell-based. The following applies: 96 h, fraction of Act D alone.
Assay in series [4]: as above
The format is cell-based. The following applies: human, kb 3-1 cells, fraction of untreated cultures, read-out: Cytotoxicity, normalized absorbance, Wildtype KB 3-1, 0 (no Act D); for viability at 96 h, 1 µM: 1 μM potentiating agent alone; for viability at 96 h, 10 µM: 10 μM potentiating agent alone.

Series [5] has as its system human KB epidermoid carcinoma cells, drug resistant KB V-1. Put plainly: In vitro cytotoxicity / potentiation of Actinomycin D in human KB epidermoid carcinoma cells, drug resistant KB V-1 (MTT). The format is cell-based. Particulars: 96 h, fraction of Act D alone.
Assay in series [6]: as above
The class given is cell-based. The following applies: human, kb v-1 cells, fraction of untreated cultures, read-out: Cytotoxicity, normalized absorbance, Drug Resistant KB V-1, 0 (no Act D); for viability at 96 h, 1 µM: 1 μM potentiating agent alone; for viability at 96 h, 10 µM: 10 μM potentiating agent alone.

Another series is described as follows: in vitro. The class given is cell-based, Chinese hamster. The following applies: hamster, cho auxb1 cells.
Where [7] appears, read: 1 μM potentiating agent + Act D 0.5 μM.
The mark [8] stands for this setting: 10 μM potentiating agent + Act D 0.5 μM.
The mark [9] stands for this setting: 1 μM potentiating agent + Act D 0.1 nM.
Where [10] appears, read: 10 μM potentiating agent + Act D 0.1 nM.
The mark [11] stands for this setting: 1 μM potentiating agent + Act D 20 nM.
Setting [12] is: 10 μM potentiating agent + Act D 20 nM.

Counter-ions that a name gives are not always drawn.

On to `CN(C)CC/C=C1/c2ccccc2COc2c(Br)cccc21` [(D), (Z)-3-(4-Bromo-6,11-dihydrodibenz [b,e]oxepin-11-ylidene)-N,N-dimethylpropylamine], for which the viability at 96 h, 1 µM is 89% in series [1], 88% in series [4], 75% in series [6] and 100% in the series “in vitro”. Besides, the viability at 96 h, 10 µM in series [1] turned out to be 34%; in series [4], 51%; in series [6], 36%; in “in vitro” it was 100%. Also, the “Synergism with Actinomycin D, normalized absorbance, Drug Resistant C5S32, +ACT D” value in series [2] (setting [7]) is given as 0.71; in series [2] (setting [8]), 0.31. The “Synergism with Actinomycin D, normalized absorbance, Wildtype KB 3-1, +ACT D” value in series [3] (setting [9]) amounted to 0.86; in series [3] (setting [10]), 0.65. The “Synergism with Actinomycin D, normalized absorbance, Drug Resistant KB V-1, +ACT D” value in series [5] (setting [11]) came to 0.78; in series [5] (setting [12]), 0.01.

For `CN(C)CC/C=C1\c2ccccc2COc2ccc(F)cc21` [(P), (E)-3-(2-fluoro-6,11-dihydrodibenz [b,e]oxepin-11-ylidine)-N,N-dimethylpropylamine], the viability at 96 h, 1 µM in series [1] came to 61%; in series [4], 65%; in series [6] it was 73%; in the series “in vitro”, 100%. For the same molecule, the viability at 96 h, 10 µM in series [1] was 31%; in series [4], 65%; in series [6] it was 52%; in “in vitro”, 100%. The “Synergism with Actinomycin D, normalized absorbance, Drug Resistant C5S32, +ACT D” value in series [2] (setting [7]) was 0.70; in series [2] (setting [8]) it was 0.38. Further, the “Synergism with Actinomycin D, normalized absorbance, Wildtype KB 3-1, +ACT D” value is 0.72 in series [3] (setting [9]) and 0.71 in series [3] (setting [10]). Moreover, the “Synergism with Actinomycin D, normalized absorbance, Drug Resistant KB V-1, +ACT D” value amounted to 0.72 in series [5] (setting [11]) and 0.58 in series [5] (setting [12]).

For `CN(C)CCC=C1c2ccccc2COc2ccccc21` [(W), doxepin, reference compound], the viability at 96 h, 1 µM in series [1] was 98%; in “in vitro”, 100%. The viability at 96 h, 10 µM in series [1] was 55%; in “in vitro”, 100%. For the same molecule, the “Synergism with Actinomycin D, normalized absorbance, Drug Resistant C5S32, +ACT D” value turned out to be 0.86 in series [2] (setting [7]) and 0.48 in series [2] (setting [8]).

On to `C(/CN1CCCC1)=C1\c2ccccc2COc2ccccc21` [(H), hydrochloride], for which the viability at 96 h, 1 µM in series [1] came to 82%; in the series “in vitro”, 100%. Besides, the viability at 96 h, 10 µM worked out at 53% in series [1] and 94% in the series “in vitro”. Moreover, the “Synergism with Actinomycin D, normalized absorbance, Drug Resistant C5S32, +ACT D” value in series [2] (setting [7]) came to 0.95; in series [2] (setting [8]), 0.51.

In the case of `Brc1ccc2c(c1)/C(=C/CCN1CCCC1)c1ccccc1CO2` [(K), (E)-1-[3-(2-Bromo-6,11-dihydrodibenz [b,e]-oxepin-11-ylidene)propyl]pyrrolidine], the viability at 96 h, 1 µM in series [1] came to 100%; in series [4] it was 85%; in series [6], 86%; in the series “in vitro”, 83%. Moreover, the viability at 96 h, 10 µM in series [1] is 100%; in series [4] it was 100%; in series [6], 8%; in “in vitro”, 87%. In addition, the “Synergism with Actinomycin D, normalized absorbance, Drug Resistant C5S32, +ACT D” value in series [2] (setting [7]) was found to be 0.79; in series [2] (setting [8]), 0.28. Besides, the results for the “Synergism with Actinomycin D, normalized absorbance, Wildtype KB 3-1, +ACT D” value in series [3] (setting [9]) and in series [3] (setting [10]) were 0.77 and 0.03, respectively. The “Synergism with Actinomycin D, normalized absorbance, Drug Resistant KB V-1, +ACT D” value in series [5] (setting [11]) was 0.88; in series [5] (setting [12]), 0.13.

For `Brc1ccc2c(c1)/C(=C\CCN1CCCC1)c1cc(Br)ccc1OC2` [(R), (E)-1-[3-(2,9-dibromo-6,11-dihydrodibenz [b,e]-oxepin-11-ylidene)propyl]pyrrolidine], the viability at 96 h, 1 µM is 50% in series [1], 78% in series [4], 87% in series [6] and 99% in the series “in vitro”. The viability at 96 h, 10 µM in series [1] was found to be 11%; in series [4], 36%; in series [6], 6%; in “in vitro”, 95%. Moreover, the “Synergism with Actinomycin D, normalized absorbance, Drug Resistant C5S32, +ACT D” value was found to be 0.52 in series [2] (setting [7]) and 0.11 in series [2] (setting [8]). The “Synergism with Actinomycin D, normalized absorbance, Wildtype KB 3-1, +ACT D” value in series [3] (setting [9]) amounted to 0.84; in series [3] (setting [10]), 0.34. Further, the “Synergism with Actinomycin D, normalized absorbance, Drug Resistant KB V-1, +ACT D” value was determined as 0.90 in series [5] (setting [11]) and 0.02 in series [5] (setting [12]).

Consider `CCN(CC)CC/C=C1\c2ccccc2COc2ccc(Br)cc21` [(N), (E) -3-(2-Bromo-6,11-dihydrodibenz [b,e]oxepin-11-ylidene)-N, N-diethylpropylamine], for which the results for the viability at 96 h, 1 µM (in series [1]; in “in vitro”) were 100% and 86%, respectively. The figures for the viability at 96 h, 10 µM (in series [1]; in the series “in vitro”) were 80% and 83%, respectively. In addition, the entries for the “Synergism with Actinomycin D, normalized absorbance, Drug Resistant C5S32, +ACT D” value in series [2] (setting [7]) and in series [2] (setting [8]) were 0.85 and 0.33, respectively.

Regarding `CN(C)CC/C=C1/c2cc(Br)ccc2COc2ccc(Br)cc21` [(U), (Z)-3-(2,9-Dibromo-6,11-dihydrodibenz [b,e]-oxepin-11-ylidene)-N,N-dimethylpropylamine], the viability at 96 h, 1 µM in series [1] turned out to be 94%; in the series “in vitro”, 84%. The viability at 96 h, 10 µM came to 74% in series [1] and 79% in “in vitro”. Further, the “Synergism with Actinomycin D, normalized absorbance, Drug Resistant C5S32, +ACT D” value in series [2] (setting [7]) came out at 0.93; in series [2] (setting [8]) it was 0.24.

For `Brc1ccc2c(c1)/C(=C/CCN1CCCC1)c1ccccc1OC2` [(M), (Z)-1-[3-(9-Bromo-6,11-dihydrodibenz [b,e]-oxepin-11-ylidene)propyl]pyrrolidine], the viability at 96 h, 1 µM in series [1] was 86%; in series [4], 100%; in series [6] it was 95%; in the series “in vitro”, 79%. Besides, the viability at 96 h, 10 µM in series [1] was found to be 100%; in series [4], 96%; in series [6] it was 65%; in the series “in vitro” it was 84%. Moreover, the “Synergism with Actinomycin D, normalized absorbance, Drug Resistant C5S32, +ACT D” value stood at 0.83 in series [2] (setting [7]) and 0.35 in series [2] (setting [8]). The “Synergism with Actinomycin D, normalized absorbance, Drug Resistant KB V-1, +ACT D” value is 1.00 in series [5] (setting [11]) and 0.31 in series [5] (setting [12]).

For the molecule `CN(C)CC/C=C1\c2cc(Br)ccc2COc2ccc(Br)cc21` [(V), (E)-3-(2,9-Dibromo-6,11-dihydrodibenz [b,e]-oxepin-11-ylidene)-N,N-dimethylpropylamine], the viability at 96 h, 1 µM turned out to be 91% in series [1] and 86% in the series “in vitro”. In addition, the viability at 96 h, 10 µM in series [1] turned out to be 75%; in the series “in vitro”, 77%. In addition, the entries for the “Synergism with Actinomycin D, normalized absorbance, Drug Resistant C5S32, +ACT D” value in series [2] (setting [7]) and in series [2] (setting [8]) were 0.87 and 0.20, respectively.
